Entries after “also recorded” stand apart in the source; their conditions may differ.
What was measured:
[1] = system: P. berghei; assay: P. berghei infection in Atg5+/+ and Atg5-/- mouse embryonic fibroblasts; assay type: cell-based; settings: 10 μM
Experimental: Data represent means±SEM (n=3). Statistical significance was assessed using the unpaired two-tailed t-test. ns: non-significant, **** P<0.0001.
To test the hypothesis that high-affinity binding of C4 to the UIS3-LC3 complex could interfere with the function of the UIS3-LC3 complex to cause a decrease Plasmodium infection by interfering with the parasite's ability to evade host cell autophagy, genetic and chemicals tools were used to assess the anti-parasitic activity of C4 in autophagy-competent and autophagy-deficient cells.
MEFs used in these studies were obtained from the Riken BioResource Research Center (Atg5^+/+ (RCB2710) and Atg5^−/− (RCB2711). (Kuma et al.) MEFs were cultured in DMEM supplemented as described above for Huh7 cells. MEFs were validated through quantitative reverse transcription PCR.

[2] = system: PfUIS3@Pb; assay: PfUIS3@Pb infection of Huh7 cells (flow cytometry EEF count); assay type: cell-based, P. berghei expressing P. falciparum UIS3; settings: 24 h post-infection
Excerpt: The following two Plasmodium parasite strains were used in the PHS: i) the rodent wild-type (WT) GFP expressing P. berghei ANKA parasite strain (259cl2, obtained from the Leiden Malaria Research Group); and ii) the parasite line, PfUIS3@Pb, created by inserting the gene encoding P. falciparum UIS3 with an added a 2 HA tag (UIS3-HA) into the P. berghei parasite (507cl1, obtained from the Leiden Malaria Research Group) at the UIS3 locus under the control of native 5′ and 3′ regulatory sequences. More particularly, to replace the P. berghei UIS3 open reading frame (ORF) with UIS3 ORF of P. falciparum, a double crossover recombination was performed as described in FIG. 2A. Transfection was carried out by electroporation of purified schizonts as previously described. […]
The PHS was performed using Huh7 cells infected with sporozoites from either parasite lines with or without adding each of the compounds, at a concentration of 10 μM, 2 h before sporozoite addition. Infection level was determined either by measuring luminescent levels of the GFP and firefly luciferase-expressing P. berghei ANKA (676m1cl1), (obtained from the Leiden Malaria Research Group) or the number of GFP-positive infected cells by flow cytometry, representing Plasmodium exo-erythrocytic form, EEF, (as PfUIS3@Pb parasite line express GFP). […]

[3] = system: P. berghei ANKA; assay: Immunofluorescence microscopy of EEF number and size, P. berghei-infected Huh7 cells; assay type: cell-based; settings: 1 μM
Experimental: (§1) To assess C4 effect on EEF number and size, Huh7 cells were plated on glass coverslips (40,000/cover slip), treated with 1 μM C4 or 0.0001% DMSO (control) and after 2 h infected with P. berghei/PfUIS3@Pb sporozoites (40,000/cover slip). Huh7 cells (obtained from ATCC) were cultured under standard conditions in RPMI 1640 and DMEM medium (Gibco Invitrogen) respectively supplemented with 10% FCS, 1% glutamine, 1% non-essential amino acids (RPMI 1640), 1% penicillin/streptomycin, and 1% Hepes (RPMI 1640).
(§2) To characterize PfUIS3@Pb parasite line, Huh7 cells were seeded on cover slips as above and infected with WT (P. berghei ANKA (507cl1)/PfUIS3@Pb sporozoites (40,000/cover slip). After 24 h, cells were fixed in 4% paraformaldehyde (ChemCruz) for 15 min at room temperature (RT), permeabilized/blocked (PBS, 0.1% Triton X-100, 1% BSA) for 1 h at RT and incubated with primary antibodies (diluted in blocking solution) for overnight at 4° C. Cells were then washed with PBS, incubated with AlexaFluor-conjugated secondary antibodies (Jackson ImmunoResearch Laboratories) and Hoechst 33342 (Invitrogen) for 1 h at RT and washed again. The coverslips were mounted with Fluoromount (SouthernBiotech). […] GFP signal was detected using AlexaFluor 488 conjugated anti GFP (rabbit polyclonal, Invitrogen, A-21311, 1:500) antibody. […] All images were processed and analysed using ImageJ.

[4] = molecular target: UIS3-LC3 complex (Plasmodium falciparum, UniProt Q8IEU1); assay: Isothermal calorimetry (ITC), C4 titrated into saturated solution of UIS3 with LC3; assay type: binding, P. falciparum
Experimental: ITC experiments were performed using MicroCal-ITC 200 (GE healthcare) at 25° C. The data were analyzed using MicroCal ITC-origin analysis software based on one-site binding reaction. For direct interaction studies, a 10 μM concentration of pfUIS3 was titrated against 0.100 μM of LC3. For competition assay, a saturated solution of UIS3 with LC3 was titrated against 100 μM of C4. C4 was resuspended in the same final buffer (with 2% DMSO) in which UIS3 and LC3 was dissolved.

[5] = system: P. berghei ANKA; assay: P. berghei infection of Huh7 cells (luciferase parasite load / flow cytometry EEF count); assay type: cell-based
Experimental: The PHS was performed using Huh7 cells infected with sporozoites from either parasite lines with or without adding each of the compounds, at a concentration of 10 μM, 2 h before sporozoite addition. Infection level was determined either by measuring luminescent levels of the GFP and firefly luciferase-expressing P. berghei ANKA (676m1cl1), (obtained from the Leiden Malaria Research Group) or the number of GFP-positive infected cells by flow cytometry, representing Plasmodium exo-erythrocytic form, EEF, (as PfUIS3@Pb parasite line express GFP).
(§3) To perform the flow cytometry analysis, Huh7 cells were seeded on a 24 well plate (50,000 cells/well) in RPMI and DMEM media respectively. The next day, media was replaced with different compounds (10 μM)/C4 (various conc.)/1 μM C4/1 μM C4+50 μM Chloroquine containing media, as appropriate in different experiments. Cells were then infected with P. bergehi/PfUIS3@Pb parasites and analysed by flow cytometry at 2 h/24 h post infection. DMSO was used as control and Primaquine was used as the positive control. For flow cytometry, infected cells were trypsinized and resuspended in 300 μl of media. 50 μl of each sample were analysed on BD Accuri C6 as described in Hanson et al. Data were analysed using FlowJo software.
The IC50 for C4 in P. berghei ANKA-infected and PfUIS3@Pb-infected cells at 24 h. Post-infection was 93.3 nM and 188.2 nM, respectively. To analyze C4 dose-dependent effect, media were replaced with DMSO (0.0001%)/C4 (various conc.)-containing media. After 2 h, cells were infected with luciferase-expressing P. berghei sporozoites (10,000/well) and processed for Luciferase assay at 24 h post-infection. Flow cytometry was used to determine EEF counts.

[6] = system: HeLa cells; assay: Starvation-induced autophagy in HeLa cells, p62 immunoblot; assay type: cell-based; settings: 1 μM for 24 h, then EBBS amino-acid starvation 7 h
Experimental: FIG. 8B is a bar graph showing the p62 levels before and after amino acid starvation were calculated as the ratio of p62 to y tubulin (loading control). Data represent means±SEM (n=2). Statistical significance was assessed using the unpaired two-tailed t-test. ns: non-significant.
As C4 acts on a protein-protein interaction at the host-parasite interface, the effect of C4 administration on host cell normal autophagy activity was determined. To that end, autophagy was induced in HeLa cells in the presence and absence of C4.
To perform the foregoing study, HeLa cells (ATCC), which had been maintained under standard culture conditions in DMEM medium supplemented with 10% FCS, 1% glutamine, 1% penicillin/streptomycin, were treated with 1 μM C4 or 0.0001% DMSO (control) for 24 h, and then changed from normal growth medium to EBBS to induce amino-acid starvation dependent autophagy. After 7 h, cells were collected in lysis buffer (50 mM NaCl, 50 mM Tris-Cl pH 8, 5 mM EDTA pH 8, 1% Triton X-100, protease inhibitor) and analysed by western blot using the following antibodies: p62 (rabbit polyclonal, Sigma-Aldrich, P0067, 1:1000) and gamma-tubulin (mouse monoclonal, Sigma-Aldrich, T5326, 1: 10,000). p62 levels were measured by quantifying the ratio of p62 to tubulin signals using Image Lab.

[7] = system: PfUIS3@Pb; assay: Immunofluorescence microscopy of EEF number and size, PfUIS3@Pb-infected Huh7 cells; assay type: cell-based, P. berghei expressing P. falciparum UIS3; settings: 1 μM
Experimental: as §1, §2

[8] = system: P. berghei; assay: Sporozoite invasion of Huh7 cells, EEFs at 2 h post-infection by flow cytometry; assay type: cell-based; settings: 1 μM, added 2 h before infection
Experimental: FIG. 5E is a bar graph showing the effect of 1 μM C4 on P. berghei numbers in Huh7 cells as quantified by number of EEFs at 2 h post-infection. C4 was added to the cells 2 h before infection. EEFs were quantitated using flow cytometry. Data represent means±SEM (n=3). Non-parametric two-tailed Mann-Whitney test was used to compare the effect of DMSO control and C4. ns: non-significant.
as §3

[9] = Solubility in DMSO; assay type: physicochemical
[10] = system: PfUIS3@Pb; assay: Reversal of C4 effect by autophagy inhibitor, PfUIS3@Pb-infected Huh7 cells; assay type: cell-based, P. berghei expressing P. falciparum UIS3; settings: 50 μM with 1 μM C4, added 2 h before infection, 24 h post-infection
Experimental: C4 and Chloroquine were added to the cells 2 h before infection. The effect was analysed at 24 h post-infection using flow cytometry by quantifying the EEFs number in infected cells. Data represent means±SEM. Pooled data from 4 independent experiments are presented. Statistical significance was assessed using the unpaired two-tailed t-test. *** P<0.001, **** P<0.0001.
as §3, with “software. […]” for “software.”

[11] = system: P. berghei; assay: Reversal of C4 effect by autophagy inhibitor, P. berghei-infected Huh7 cells; assay type: cell-based; settings: 50 μM with 1 μM C4, added 2 h before infection, 24 h post-infection
[12] = molecular target: Microtubule-associated protein 1A/1B-light chain 3 (LC3), purified recombinant (UniProt Q9GZQ8); assay: ITC, 100 µM LC3 titrated into 10 µM PfUIS3, 25 °C, one-site model

N#Cc1ccc(C(=O)N2CCN(Cc3ccc(-c4noc(-c5cccc(C(F)(F)F)c5)n4)cc3)CC2)cc1 [Compound C4]
Reduction in infection in Atg5−/− MEFs ([1]; autophagy-deficient cells): did not cause any reduction in infection
Impact on infection in Atg5+/+ MEFs ([1]; control cells): comparable to that observed for infected Huh7 cells
Number of EEFs / decrease in infection in phenotypic screen ([2]; 10 μM, added 2 h before infection, Huh7 cells): most effective compound; also recorded: highest decrease in infection
IC50 ([2]; PfUIS3@Pb-infected Huh7 cells, flow cytometry): 188 nM
Parasite development, as measured by parasite area [3]: modest impact
Number of infected cells (microscopy) ([3]; added 2 h before infection): significant decrease
Affinity to UIS3-LC3 complex relative to direct UIS3-LC3 interaction [4]: 10 fold
Kd ([4]; 25° C., one-site binding model, 100 μM C4 into UIS3 saturated with LC3): 241 ± 1.1 nM
Effect on infection over time ([5]; 1 μM, from very early time-point, maintained through at least 48 h post-infection): decreased infection
Parasite load / decrease in infection in phenotypic screen ([5]; 10 μM, added 2 h before infection, 24 h post-infection, Huh7 cells): most effective compound; also recorded: highest decrease in infection
IC50 ([5]; Plasmodium berghei, Huh-7, P. berghei ANKA-infected Huh7 cells, 24 h post-infection, luciferase assay): 93.3 nM
Host cell response to exogenous autophagy stimulus (p62 levels) [6]: does not cause any impairment
Parasite development, as measured by parasite area [7]: modest impact
Number of infected cells (microscopy) ([7]; added 2 h before infection): significant decrease
Effect on sporozoite invasion of host cells [8]: did not affect

Cc1ccc(C)c(NC(=O)N2CCN(c3ccc(-c4noc(C5CCCCC5)n4)cc3)CC2)c1 [Compound C9]
Solubility in DMSO [9]: insolubilities in DMSO

Cc1c/c(=N\C(=O)N2CCC3(CC2)OCCO3)nc2c3ccccc3oc(O)c1-2 [Compound C8]
Solubility in DMSO [9]: insolubilities in DMSO

CCN(CC)CCCC(C)Nc1ccnc2cc(Cl)ccc12 (stereo not shown) [Chloroquine]
Reversal of anti-parasitic effect of C4 (EEF number) [10]: can be reverted
Reversal of anti-parasitic effect of C4 (EEF number) ([10]; listed as chloroquine): rescued the C4 effect
Reversal of anti-parasitic effect of C4 (EEF number) [11]: can be reverted
Reversal of anti-parasitic effect of C4 (EEF number) ([11]; listed as chloroquine): rescued the C4 effect

Plasmodium falciparum Upregulated in infective sporozoites 3 (UIS3), purified recombinant myc-UIS3
Kd [12]: 2150 nM

— US20220211698A1, “ANTI MALARIAL COMPOUNDS” (INSTITUTO DE MEDICINA MOLECULAR, priority 2020, published 2022)
